Two compounds from patent US20040039041A1, “Prevention of development of dyskinesias” (priority 2003, published 2004) can be followed below.

Assay [1] has as its system C57BL/6J strain male mice. In words: Locomotor activity during chronic treatment (days 1-8), D-amphetamine sensitization schedule with atipamezole pre-treatment. Format: in vivo. The procedure: The effects of atipamezole on the locomotor hyperactivity induced by repeated administration of D-amphetamine were studied in male mice.
(§1) Experiments were performed with C57BL/6J strain male mice from Jackson Laboratories. Mice were transferred to laboratory at least 2 weeks prior to use. The mice were from 8 to 20 weeks of age at the beginning of an experiment. Groups of 10 mice were housed in standard polypropylene cages (38×22×15 cm) with free access to standard certified pelleted food (RM1 Maintenance Expanded SQC; Special Diet Services, Essex, UK) and water. Ambient temperature was 22±1 C°, and a 12:12 h light/dark cycle was maintained with lights on at 6 A.M. All experiments were carried out between 7 A.M. and 5 P.M. The animal care was performed in accordance with International Council for Laboratory Animal Science (ICLAS) guidelines.
(§2) D-Amphetamine sulphate (Sigma, St. Louis, Mo., U.S.A.) and atipamezole HCl (Orion Corporation, Orion Pharma, Turku, Finland) were dissolved in saline (0.9% NaCl) and administered subcutaneously (s.c.) in a 5 ml/kg volume.
(§3) The locomotor activity of the mice was measured in transparent standard polypropylene animal cages (38×22×15 cm) with transparent cover and aspen bedding on the floor. Test cages were placed middle of the photobeam frame system (Photobeam Activity System PAS, Cage Rack, San Diego Instruments, San Diego, Calif.). Computer control unit registered the interruptions of photobeams from 16 individual cages. Three different types of movements were monitored: 1) ambulations (large horizontal movements), 2) fine movements (smaller horizontal movements) and 3) rearings (vertical movements). Locomotor activity was measured at 5-min intervals for 2 h immediately after D-amphetamine or saline administrations.
D-amphetamine was administered subcutaneously (s.c.) at the dose of 2 mg/kg. Atipamezole was administered s.c. at the dose of 1 mg/kg 20 min before locomotor activity measurement.
In the chronic-treatment group mice were administrated during eight days to elicit provoked locomotor hyperactivity to D-amphetamine and the effect of the atipamezole to the locomotor activity. Mice groups in the chronic treatment schedule were saline, saline-amphetamine, amphetamine, atipamezole and atipamezole-amphetamine. A day before experiment, mice were habituated to the test environment. […] At days seven and eight, the produced locomotor hyperactivity and effect of a single exposure of D-amphetamine (saline-amphetamine-group) were analysed. […]
All data are presented as mean±SEM. […] Results were analysed separately, because data were collected in separate experiments with different study design. When significance (P<0.05) between treatment groups were found comparisons at each time point (date or min) were analyzed by using LSD post-hoc test.

Assay [2] concerns C57BL/6J strain male mice. In words: Locomotor activity after different drug treatments at day 9 in the chronic treatment groups. It is filed as in vivo. The procedure: as §1, §2, §3
At day nine, the effect of different atipamezole and amphetamine administrations to the locomotor activity on the chronic treatment groups were analysed. Used treatments were saline, 1 mg/kg atipamezole, 2 mg/kg D-amphetamine, 0.3 mg/kg atipamezole-2 mg/kg D-amphetamine and 1 mg/kg atipamezole-2 mg/kg D-amphetamine. Chronic treatment groups were saline-, atipamezole-, amphetamine- and atipamezole-amphetamine groups. Chronic groups were treated following schedule in Table 2.
All data are presented as mean±SEM. Statistical analysis were performed using SPSS 9.0 for Windows (SPSS, Chicago, Ill.). Separate repeated measures analyses of variance (ANOVA) were performed on each variable for each experiment grouped on time and treatment group. Results were analysed separately, because data were collected in separate experiments with different study design. When significance (P<0.05) between treatment groups were found comparisons at each time point (date or min) were analyzed by using LSD post-hoc test.

With `C[C@H](N)Cc1ccccc1` [D-amphetamine], the “ambulatory activity compared to saline group” value in assay [1] (D-amphetamine 2 mg/kg s.c., six repeated administrations (days 1-4, 7, 8), 2-h counts, group amphetamine vs saline and saline-amphetamine at Day 8 P<0.001) is recorded as “progressive enhance in ambulatory activity”. Further, the “ambulatory sensitization during repeated administration” value in assay [2] (Day 9, chronic amphetamine group, D-amphetamine 2 mg/kg, P<0.001) is “developed strong ambulatory sensitization”. In assay [2] (Day 9, chronic saline group, D-amphetamine 2 mg/kg s.c., P<0.001 vs saline, not same level as amphetamine group (P<0.001)), the “locomotor activity after D-amphetamine” value is reported as “significantly enhanced locomotor activity”.

Consider `CCC1(c2c[nH]cn2)Cc2ccccc2C1` [Atipamezole, 4-(2-ethyl-2,3-dihydro-1H-inden-2-yl)-1H-imidazole], for which, in assay [1] (atipamezole 1 mg/kg s.c. 20 min before D-amphetamine 2 mg/kg s.c. over the course of exposure, Day 2 P<0.05, Days 3-8 P<0.001), the “D-amphetamine-induced locomotion, atipamezole-amphetamine vs amphetamine group” value is “decreased significantly D-amphetamine-induced locomotion”. In addition, in assay [1] (atipamezole 1 mg/kg s.c. daily for six days, 20 min before saline, Day 8, P=0.43), the “locomotor activity, atipamezole pre-treatment before saline challenge vs saline group” value was “not statistical significant difference”. Moreover, the “development and expression of sensitization (motor overactivity)” value in assay [1] (given chronically in combination with D-amphetamine, in mice (summary statement)) is “reduced the development and expression of sensitization”. Also, the “D-amphetamine-induced locomotor hyperactivity in sensitized mice” value in assay [2] (Day 9, chronic amphetamine group, atipamezole 0.3 mg/kg 20 min before D-amphetamine 2 mg/kg, P=0.005) was “clearly attenuated the D-amphetamine-induced locomotor hyperactivity”; in assay [2] (Day 9, chronic amphetamine group, atipamezole 1 mg/kg 20 min before D-amphetamine 2 mg/kg, P<0.001), “clearly attenuated the D-amphetamine-induced locomotor hyperactivity”. Besides, the “locomotor activity before saline and D-amphetamine challenge after chronic atipamezole” value in assay [2] (Day 9, chronic atipamezole group (1 mg/kg days 1-8)) is given as “elevation was not statistically significant”. Moreover, in assay [2] (Day 9, chronic atipamezole-amphetamine group given atipamezole 1 mg/kg 20 min before D-amphetamine 2 mg/kg, P<0.001), the “D-amphetamine induced locomotion, group atipamezole-amphetamine vs amphetamine-amphetamine” value is on record as “decreased significantly D-amphetamine induced locomotion”. In addition, the “locomotor activity with D-amphetamine only at Day 9 after chronic atipamezole-amphetamine, compared to amphetamine-amphetamine group (development of sensitization)” value in assay [2] (Day 9, chronic atipamezole-amphetamine group given only D-amphetamine 2 mg/kg, P-0.026) is on record as “true reduction in the development of sensitization”. In addition, the “locomotor activity, atipamezole pre-treatment before D-amphetamine challenge compared D-amphetamine alone” value in assay [2] (Day 9, chronic saline group, atipamezole 0.3 mg/kg 20 min before D-amphetamine 2 mg/kg, P=0.016) is reported as “amplified locomotor activity”; in assay [2] (Day 9, chronic saline group, atipamezole 1 mg/kg 20 min before D-amphetamine 2 mg/kg, P=0.364), “had no effect”. Further, the “total ambulatory activity counts, atipamezole pre-treatment alone” value in assay [2] (Day 9, chronic saline group, atipamezole 1 mg/kg 20 min before saline, P=0.81) is given as “did not alter total ambulatory activity counts”.
